Read-outs that look alike come from different tables or passages of the source.
Assays:
[1] = test system: Pseudomonas putida ATCC 11172; test: Biodegradation of solvents (consumed as substrate); format: cell-based; conditions: Table 1; Yes/No
Experimental: (§1) Pseudomonas putida available under ATCC accession number 11172, an organism known to degrade phenol by the meta pathway (Bayly et al.^17) was used in this Example. The organism was maintained on medium previously described (Fujita et al.^11), containing 5 g/L glucose and 100 mg/L phenol as carbon sources. EDTA was also added to the medium at a 1:1 molar ratio with ferric chloride to prevent the formation of a precipitate. Cultures were grown in 125 mL Erlenmeyer flasks containing 50 mL of maintenance medium in a shaker bath at 30° C. The flasks were allowed to incubate for 36 hours prior to their use as inoculum for fermentation. A total of 160 mL of the cultured medium was centrifuged, the supernatant discarded and the cell fraction resuspended in the remaining 40 mL of medium. The 40 mL aliquot was then used to inoculate the fermentor for the batch and fed batch experiments.
The biodegradability of the solvents was assessed as part of the solvent selection process. 5 mL of each solvent was added to 125 mL Erlenmeyer flasks containing 50 mL of seeded maintenance medium containing 250 mg/L phenol but no glucose. Solvent was not added to one flask, which was used as a control. In addition, 5 mL of corn oil was added to one flask, to serve as a positive control. Flasks were placed on the shaker bath as above for 7 days. The cell density in each flask was measured every 24 hours. The net change in cell density was then compared to the change in cell density seen in the control and the positive control.

[2] = Determination of partition coefficients of phenol between solvent and medium buffer; format: physicochemical
Experimental: A stock solution of medium buffer containing 5 g/L of phenol was prepared, and 5 mL samples of the medium buffer were then contacted with 5 mL of solvent using the Mixxor™ contacting system. The contacted samples were then centrifuged, and the organic phase was aspirated and discarded. […] A red colour was developed in the samples, and the absorbance of the solution was measured relative to a blank using a Bausch and Lomb Spectronic 2000™ spectrophotometer. The partition coefficient for phenol in each organic-aqueous system was then be determined by mass balance. Any solvents that formed emulsions with the aqueous phase were eliminated from the solvent screening process, due to the difficulties associated with calculating partition coefficients for these systems.

[3] = test system: Pseudomonas putida ATCC 11172
Experimental: To allow for complete biodegradation of the substrate, the carbon-free medium formulation was doubled in concentration, in order to provide adequate nutrients for the fermentation. The fermentor was initially aerated to 0.25 vvm and agitated at 200 rpm, but during the fermentation aeration was increased to 0.5 vvm, and agitation to 250 rpm, to increase the mass transfer of oxygen to the cells. A dissolved oxygen electrode was used to monitor the level of oxygen in the aqueous phase. The pH of the system was controlled at 6.8 using 1N KOH.
(§3) Samples were taken from the organic and aqueous phases every twelve hours throughout the fermentations. Samples were centrifuged prior to analysis to separate the cell fraction, aqueous phase and organic layer. […] The organic samples were contacted with medium buffer using the Mixxor™ contacting system. The resulting mixture was then centrifuged, and the organic phase aspirated off. Phenol levels in the buffer were then determined as above, and the experimentally determined partition coefficient was used to calculate the concentration of phenol present in the organic phase. Cell density was assessed as described above. Consumption of base was also monitored.

[4] = test system: Pseudomonas putida ATCC 11172; remark: listed apart in the source
Experimental: The microorganism used for these experiments was Pseudomonas putida available under ATCC accession number 11172. The organism was maintained in liquid and solid culture, transferred weekly. The maintenance medium formulation used was as previously described (Fujita et al.^11), with 5 g/L glucose and 100 mg/L phenol provided as carbon sources. Cultures were grown in 125 mL flasks containing 50 mL of medium in a shaker bath at 30° C. for 36 hours prior to inoculation of the fermentor. A total of 160 mL of inoculum from 4 flasks was concentrated by centrifugation, the supernatant decanted and the cell fraction resuspended in the remaining 40 mL of medium to prepare the final inoculum.
(§2) Fermentation was carried out in a 2 L New Brunswick Scientific BioFlo reactor modified for aeration with a fritted glass tube. The fermentor was operated at 30° C., agitated at 200 rpm and aerated at 0.25 vvm, based on the aqueous phase volume. The pH was controlled at 6.8 using 2N KOH. The fermentor was heat sterilized with 1 L of medium (containing no carbon source) already in place. The sterilized medium was then inoculated, and 500 mL of the organic solvent, loaded with 4 g of phenol, was added, as depicted in the schematic diagram shown in FIG. 1. A control fermentor was also prepared in the same manner, but with a cell free aqueous phase, to test for possible volatilization of phenol due to air stripping.
Cell density was estimated by measuring the optical density of samples taken from the aqueous phase at 650 nm. Phenol concentrations in the aqueous phase were estimated using the 4-aminoantipyrine method (Der Yang et al.^12) and a Bausch and Lomb Spectronic 2000 spectrophotometer. The samples were centrifuged prior to analysis in order to remove the cell fraction. The concentration of phenol in the organic phase was measured by contacting a sample taken from the organic phase with medium buffer using a Mixxora contacting system. The resulting mixture was centrifuged, the organic phase aspirated, and the buffer analyzed using the 4-aminoantipyrine method, as mentioned above. The amount of phenol present in the organic phase was then calculated by mass balance using an […] partition coefficient.

[5] = test system: Pseudomonas putida ATCC 11172; remark: listed apart in the source
Experimental: as §1
The fermentor was prepared as above, but with a second glass sparger added to improve aeration. A propeller was added to the stir shaft of the fermentation vessel, in an attempt to reduce foaming. The fermentation was allowed to progress normally, but when the phenol concentration in the organic phase reached 2 g/L, 250 ml of the organic phase was removed, and spiked with approximately 9 g of phenol. The organic sample was then returned to the reactor, bringing the overall concentration of phenol in the organic phase back to 20 g/L. This was done twice, at 72 hours and at 120 hours. Nutrient spikes (the standard carbon-free medium formulation dissolved in 50 mL of water, instead of 1 L) were also added at 96 hours and at 132 hours, to avoid nutrient depletion in the aqueous phase.
Samples were taken from the organic and aqueous phases every twelve hours throughout the fermentations. Samples were centrifuged prior to analysis to separate the cell fraction, aqueous phase and organic layer. Phenol concentrations in the aqueous phase were assayed using the 4-aminoantipyrine method as described above. The organic samples were contacted with medium buffer using the Mixxor™ contacting system. The resulting mixture was then centrifuged, and the organic phase aspirated off. Phenol levels in the buffer were then determined as above, and the experimentally determined partition coefficient was used to calculate the concentration of phenol present in the organic phase. Cell density was assessed as described above. Consumption of base was also monitored.

[6] = test system: Pseudomonas putida ATCC 11172; remark: listed apart in the source
Experimental: as §3

[7] = Experimental: as §2
The pH was controlled at 6.8 using 2N KOH.

Pseudomonas putida = conditions: cited from earlier work
[8] = 28 g fed batch, initial 10 g of phenol

SMILES: CCCCCCCCCCO [1-decanol]
- Consumed as Substrate [1]: Yes

SMILES: CCCCCCCCCO [1-nonanol]
- Consumed as Substrate [1]: Yes

SMILES: CCCCCCCCCCCO [1-undecanol]
- Partition Coefficient [2]: 20.8
- Consumed as Substrate [1]: Yes

SMILES: CCCCCCCCC(C)O (centres unmarked) [2-decanol]
- Partition Coefficient [2]: 22.6
- Consumed as Substrate [1]: No

SMILES: CCCCCCCCC(C)=O [2-decanone]
- Consumed as Substrate [1]: No

SMILES: CCCCCCCC(C)O (centres unmarked) [2-nonanol]
- Partition Coefficient [2]: 28.3
- Consumed as Substrate [1]: No

SMILES: CCCCCCCCCC(C)=O [2-undecanone]
- Consumed as Substrate [1]: No

SMILES: Oc1ccccc1 [phenol]
- yield coefficient ([3]; 10 g batch system, cells in aqueous phase only): 0.15 g/g
- initial concentration of phenol in the aqueous phase ([3]; 10 g phenol in organic phase): approximately 420 mg/L
- lag phase ([3]; 10 g phenol, batch): about 24 hours
- volumetric phenol consumption rate ([3]; the batch system, based on aqueous phase volume): approximately 135 mg/L-h
- initial concentration of phenol in the aqueous phase ([4]; 4 g phenol in 500 mL 2-undecanone, 1 L aqueous): approximately 168 mg/L
- time to consumption of phenol to exhaustion ([4]; 4 g phenol, 2-undecanone, batch): over 48 hours
- initial lag phase ([4]; 4 g phenol, batch): 12 h
- volumetric phenol consumption rate ([4]; based on aqueous phase volume, 4 g phenol, batch): approximately 80 mg/L-h
- yield coefficient ([4]; cells in aqueous phase only, 4 g phenol): approximately 0.21 g cells produced/g phenol consumed
- yield coefficient ([5]; 28 g fed batch system, cells in aqueous phase only): 0.12 g/g
- exponential growth phase [5, 8]: 48 h
- lag phase [5, 8]: 24 h
- lag phase of cell growth for the spikes of phenol ([5]; fed batch mode): eliminates the lag phase
- time to degrade 28 g of phenol ([5]; fed batch system): about 165 hours
- volumetric consumption rate ([5]; fed batch system): 175 mg/L-h
- time to consumption of the last 10 g of phenol to exhaustion ([5]; fed batch, time from start of fermentation): under 168 hours
- yield coefficient ([6]; 4 g phenol batch, cells in aqueous phase only): 0.20 g cells/g phenol
- initial concentration of phenol in the aqueous phase ([6]; 4 g phenol in organic phase): 168 mg/L
- initial lag phase ([6]; 4 g phenol, batch): 12 h
- loss of phenol to volatilization ([7]; cell free fermentor, 48 hours, Example 1): no loss of phenol to volatilization
- loss of phenol due to air stripping ([7]; control (cell-free) fermentor, Example 2): no phenol was lost due to air stripping
- typical yield coefficient on phenol (Pseudomonas putida; Hill et al., g cells/g phenol): 0.52 ± 0.08 g/g
- yield coefficient (Pseudomonas putida; Hill et al., printed without unit in Example 1): 0.52+/-0.08
- typical inhibitory value of phenol (Pseudomonas putida; Kotturi et al.): 500 mg/L
- volumetric phenol consumption rate (Pseudomonas putida; highest literature value, batch system, Fujita et al.): 37.5 mg/L-h
